Patent US20150017673A1, “COMPOSITIONS AND METHODS FOR DRUG-SENSITIZATION OR INHIBITION OF A CANCER CELL” (priority 2012, published 2015)
Read-outs that look alike come from different tables or passages of the source.

Experiments:
myeloma RPMI 8226 = experiment: Cell growth assay on RPMI 8226 cells; assay type: cell-based; conditions: for IC50: Homo sapiens
Procedure: (§1) Compositions were tested on CHOP-resistant G3 NHL cells that had been cultivated in RPMI medium for five days. Prior to assay, the cells were counted by haemocytometer and cell concentration standardized to 625,000 cells/ml. Test drugs were solubilized in 100% DMSO and then diluted to final assay concentration with 0.1M phosphate buffered saline (PBS) and a final DMSO concentration of 0.5%. Cells were added to assay plates containing the test drugs (rifabutin+148 ng/ml, 74 ng/ml, 37 ng/ml, or 0 ng/ml doxorubicin) and allowed to incubate for 96 hours at 37° C. and 5% CO2. The metabolic dye rezasurin was added to the wells of the assay plate at a final concentration of 20 μg/ml and the plates were incubated for an additional 24 hours. The plates were then read in a BMG Polarstar plate reader at wavelength (573-605) and the data plotted as OD versus increasing dilutions (i.e. decreasing total amounts) of rifabutin derivative concentration.
(§2) Additional cell lines used include: ovarian cancer OVCAR-8, T lymphoblastoid leukemia MOLT-4, dexamethasone-resistant multiple myeloma MM.1R, myeloid leukemia cells HL-60, osteosarcoma cells U-2 OS, and myeloma RPMI 8226.

[1] = test system: myeloid leukemia cells HL-60; experiment: Cell growth assay on HL-60 cells; assay type: cell-based; conditions: for IC50: Homo sapiens
Procedure: as §1, §2

ovarian cancer OVCAR-8 = experiment: Cell growth assay on OVCAR-8 cells; assay type: cell-based; conditions: for IC50: Homo sapiens
Procedure: as §1, §2

lymphoma cell line G3 = experiment: Cell growth assay (resazurin fluorescence) on CHOP-resistant G3 NHL cells; assay type: cell-based, human
Procedure: as §1

[2] = test system: osteosarcoma cells U-2 OS; experiment: Cell growth assay on U-2 OS cells; assay type: cell-based; conditions: for IC50: Homo sapiens, U2OS
Procedure: as §1, §2

[3] = test system: multi-drug resistant ovarian carcinoma cell line SK-OV3; experiment: Cell growth assay on SK-OV3 cells; assay type: cell-based, human; conditions: for IC50: Homo sapiens, SK-OV-3
Procedure: as §1
(§3) In these experiments, the following cell lines were used: CHOP-resistant NHL cell line G3, CHOP-sensitive NHL cell line CRL2631, the multi-drug resistant sarcoma cell line MES-SA-Dx5; multi-drug-resistant breast cancer cell line MDA-MB-231, multi-drug resistant ovarian carcinoma cell line SK-OV3, multi-drug resistant ovarian cancer cell line NCI/ADR-RES, drug-sensitive ovarian cancer cell line OVCAR-5, and multi-drug resistant ovarian cancer cell line OVCAR-3. […]

VEGF = VEGF secretion ELISA in U2-OS cells; assay type: cell-based; conditions: RTI-79, U2-OS cells; decrease from 998
[4] = test system: ROS in OVCAR8 ovarian cells; experiment: Intracellular ROS (CellROX, flow cytometry) in OVCAR8 cells; assay type: cell-based; conditions: 10 uM, 2 hrs, degree much less than in resistant lines
Text: (§4) Cells were then stained with the fluorescent ROS indicator, CellROX, and subjected to flow cytometry to quantitate total intracellular ROS.

[5] = test system: ROS in ADR-RES ovarian cells; experiment: Intracellular ROS (CellROX, flow cytometry) in ADR-RES cells; assay type: cell-based; conditions: 10 uM, 2 hrs
Text: as §4

[6] = test system: multi-drug resistant sarcoma cell line MES-SA-Dx5; experiment: Cell growth assay on MES-SA-Dx5 cells; assay type: cell-based; conditions: MES-SA-Dx5, uterus sarcoma
Procedure: as §1
(§5) In these experiments, the following cell lines were used: CHOP-resistant NHL cell line G3, CHOP-sensitive NHL cell line CRL2631, the multi-drug resistant sarcoma cell line MES-SA-Dx5; multi-drug-resistant breast cancer cell line MDA-MB-231, multi-drug resistant ovarian carcinoma cell line SK-OV3, multi-drug resistant ovarian cancer cell line NCI/ADR-RES, drug-sensitive ovarian cancer cell line OVCAR-5, and multi-drug resistant ovarian cancer cell line OVCAR-3.
as §2

ROS in G3 lymphoma cells = experiment: Intracellular ROS (CellROX, flow cytometry) in G3 cells; assay type: cell-based, human
Procedure: as §4
The electron transport chain (ETC) is known to be a primary generator of ROS in the cell. Most of the ROS is generated by Complexes I and III of the ETC Inhibition of Complex I results in electrons piling up and leaking to react with oxygen to produce ROS.
(§6) All samples were analyzed at the same time in flow cytometry.

[7] = test system: multi-drug resistant ovarian cancer cell line NCI/ADR-RES; experiment: Cell growth assay on NCI/ADR-RES cells; assay type: cell-based; conditions: NCI/ADR-RES, ovarian carcinoma
Procedure: as §1, §5, §2

MMP2 = MMP2 secretion ELISA in U2-OS cells; assay type: cell-based; conditions: 5 uM RTI-79, U2-OS cells; reduced from 22.4
[8] = test system: primary human fibroblasts; conditions: with and without 2 uM Dox
[9] = mice treated with RTI-79 with or without DOX
Procedure: Swiss mice were dosed with levels equal to and exceeding that of intended doses.

calcium in G3 cells = experiment: Calcium mobilization (Fluo-4AM, flow cytometry); assay type: cell-based, human
Procedure: MDR/P-gp activity is closely associated with calcium status in the cell, so calcium modulators were tested for effects on ROS. […] Relatively Dox-sensitive lymphoma (CRL2631, 10S, WSU) and ovarian carcinoma (OVCAR8) and more Dox-resistant lymphoma (G3R,10R, WSUR) and ovarian carcinoma (ADR) were treated with 10 uM […] for 2 hrs. […] Cells were co-stained with the cell-permeable red fluorescent ROS indicator, CellROX, and cell-permeable green fluorescent calcium indicator, Fluo-4AM, and then subjected to flow cytometry to quantitate changes in ROS and calcium levels.
as §6

[10] = test system: multi-drug-resistant breast cancer cell line MDA-MB-231; experiment: Cell growth assay on MDA-MB-231 cells; assay type: cell-based; conditions: MDA-MB-231, breast carcinoma
Procedure: as §1, §5, §2

[11] = test system: multi-drug resistant ovarian cancer cell line (NCI/ADR-RES); experiment: NCI/ADR-RES xenograft efficacy studies in nude mice; assay type: in vivo; conditions: DOXIL 7 mg/kg i.v. + RTI-79 25 mg/kg oral
Text: In a sixth efficacy study, we generated xenografts of multi-drug resistant ovarian cancer cell line (NCI/ADR-RES) by implantation of NCI/ADR-RES cell xenografts in the left and right flanks of nude mice, resulting in two tumors per mice. […] Tumor size was monitored.
In a seventh efficacy study, we generated xenografts of multi-drug resistant ovarian cancer cell line (NCI/ADR-RES) by implantation of NCI/ADR-RES cells xenografts in the left and right flanks of nude mice, resulting in two tumors per mouse. […] Tumor size was monitored.

[12] = test system: drug-sensitive ovarian cancer cell line OVCAR-5; experiment: Cell growth assay on OVCAR-5 cells; assay type: cell-based; conditions: OVCAR-5, ovarian carcinoma
Procedure: as §1, §5, §2

[13] = Time to maximal RTI-79 plasma concentration; assay type: in vivo; conditions: after administration
ABCB1 pumps = ABCB1 pumps (Homo sapiens, UniProt P08183)
Sequence of ABCB1 pumps (P08183 whole entry): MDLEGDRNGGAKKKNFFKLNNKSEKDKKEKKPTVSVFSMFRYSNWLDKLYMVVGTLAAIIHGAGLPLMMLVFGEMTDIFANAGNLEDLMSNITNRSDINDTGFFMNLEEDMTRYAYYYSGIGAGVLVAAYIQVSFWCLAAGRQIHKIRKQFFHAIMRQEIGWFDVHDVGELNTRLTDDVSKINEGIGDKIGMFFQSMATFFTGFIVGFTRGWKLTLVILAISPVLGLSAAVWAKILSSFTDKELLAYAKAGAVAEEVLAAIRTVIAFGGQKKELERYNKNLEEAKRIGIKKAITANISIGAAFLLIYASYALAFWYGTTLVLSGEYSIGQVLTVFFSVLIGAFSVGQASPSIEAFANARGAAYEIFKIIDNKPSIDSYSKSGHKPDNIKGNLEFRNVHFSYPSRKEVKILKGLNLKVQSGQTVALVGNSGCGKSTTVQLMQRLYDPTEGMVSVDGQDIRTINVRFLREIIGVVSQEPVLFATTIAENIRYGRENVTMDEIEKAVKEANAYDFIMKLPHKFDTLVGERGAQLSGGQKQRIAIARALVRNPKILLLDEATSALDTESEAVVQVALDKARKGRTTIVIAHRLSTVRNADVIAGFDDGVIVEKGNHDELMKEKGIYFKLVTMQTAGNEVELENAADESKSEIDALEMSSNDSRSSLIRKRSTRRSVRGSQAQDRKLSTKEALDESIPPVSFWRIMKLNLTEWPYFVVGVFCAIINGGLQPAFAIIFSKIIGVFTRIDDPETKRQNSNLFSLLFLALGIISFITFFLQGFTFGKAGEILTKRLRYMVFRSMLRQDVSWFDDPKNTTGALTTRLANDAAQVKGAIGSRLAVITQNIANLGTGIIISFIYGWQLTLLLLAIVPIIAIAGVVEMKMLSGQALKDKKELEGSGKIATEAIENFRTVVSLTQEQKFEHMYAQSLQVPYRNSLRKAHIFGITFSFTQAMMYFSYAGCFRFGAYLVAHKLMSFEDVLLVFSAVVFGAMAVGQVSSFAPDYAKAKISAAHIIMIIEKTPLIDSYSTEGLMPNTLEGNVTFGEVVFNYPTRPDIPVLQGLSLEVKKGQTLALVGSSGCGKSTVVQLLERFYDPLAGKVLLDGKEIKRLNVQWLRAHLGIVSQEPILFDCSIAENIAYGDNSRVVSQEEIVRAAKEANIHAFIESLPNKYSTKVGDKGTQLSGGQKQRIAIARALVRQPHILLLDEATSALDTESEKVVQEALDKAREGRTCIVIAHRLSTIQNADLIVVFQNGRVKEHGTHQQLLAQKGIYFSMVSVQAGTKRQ

[14] = test system: multi-drug resistant ovarian cancer cell line OVCAR-3; experiment: Cell growth assay on OVCAR-3 cells; assay type: cell-based; conditions: OVCAR-3, ovarian carcinoma
Procedure: as §1, §3

[15] = therapeutic drug alone, read-out: IC50
[16] = therapeutic drug with Rifabutin, read-out: IC50 (μM) with Rifabutin

In the case of `CC(=O)O[C@H]1C(=O)[C@@]2(C)[C@H]([C@H](OC(=O)c3ccccc3)[C@]3(O)C[C@H](OC(=O)[C@H](O)[C@@H](NC(=O)c4ccccc4)c4ccccc4)C(C)=C1C3(C)C)[C@]1(OC(C)=O)CO[C@@H]1C[C@@H]2O` [Paclitaxel, paclitaxel], the IC50 (myeloma RPMI 8226; [15]) is reported as 1 µM, the IC50 (myeloma RPMI 8226; [16]) is reported as 0.89 µM and the “Fold increase in potency” value (myeloma RPMI 8226; with vs without Rifabutin) is reported as 1.1 fold. The IC50 [1, 15] was 0.4 µM, the IC50 [1, 16] was 0.2 µM and the “Fold increase in potency” value ([1]; with vs without Rifabutin) was 2 fold.

For `O=C1c2c(O)ccc(O)c2C(=O)c2c(NCCNCCO)ccc(NCCNCCO)c21` [Mitoxantrone, mitoxantrone], the IC50 (ovarian cancer OVCAR-8; [15]) was 14 µM, the IC50 (ovarian cancer OVCAR-8; [16]) was 3 µM and the “Fold increase in potency” value (ovarian cancer OVCAR-8; with vs without Rifabutin) was 4.7 fold. The IC50 (lymphoma cell line G3; Homo sapiens, therapeutic drug alone, G3, read-out: IC50) was 0.46 µM, the IC50 (lymphoma cell line G3; Homo sapiens, therapeutic drug with Rifabutin, G3, read-out: IC50 (μM) with Rifabutin) was 0.04 µM and the “Fold increase in potency” value (lymphoma cell line G3; with vs without Rifabutin, G3) was 11.5 fold. The IC50 [2, 15] was 0.14 µM, the IC50 [2, 16] was 0.06 µM and the “Fold increase in potency” value ([2]; with vs without Rifabutin) was 2.3 fold. For the same molecule, the IC50 ([3]; therapeutic drug alone, SK-OV3, read-out: IC50) was greater than 32 µM, the IC50 ([3]; therapeutic drug with Rifabutin, SK-OV3, read-out: IC50 (μM) with Rifabutin) was 12.3 µM and the “Fold increase in potency” value ([3]; with vs without Rifabutin, SK-OV3) was greater than 2.6 fold.

For `COC1C=COC2(C)Oc3c(C)c(O)c4c(c3C2=O)C2=NC3(CCN(C(=O)OCC(C)C)CC3)NC2=C(NC(=O)C(C)=CC=CC(C)C(O)C(C)C(O)C(C)C(OC(C)=O)C1C)C4=O` (stereo not shown) [RTI-79, 4-deoxy-3,4[2-spiro-[1-(isobutyloxycarbonyl)-piperidin-4-yl]]-(1H)-imidazo-(2,5-dihydro)rifamycin S], the VEGF secretion (VEGF) was 436 pg/million cells, the “total intracellular ROS” value [4] was “induced ROS” and the “total intracellular ROS” value [5] was “induced ROS”. For the same molecule, the “Magnitude of potentiation in combination with doxorubicin” value (from here on “Magnitude of potentiation”) [6] was “++ (potentiation between 2.1 to 5 fold increase)”, the “time to first increase in ROS” value (ROS in G3 lymphoma cells; 10 uM RTI-79, 0 to 30 minutes) was 1 min and the “total intracellular ROS” value (ROS in G3 lymphoma cells; 10 uM, 2 hrs) was “induced ROS”. For the same molecule, the “Magnitude of potentiation” value [7] was “++ (potentiation between 2.1 to 5 fold increase)”, the MMP2 secretion (MMP2) was 10.5 ng/million cells and the “comparative cytotoxicity to normal cells” value [8] was “not toxic to normal cells”. The “heart histology (H&E), complete blood count and manual differential” value [9] was “no significant differences”, the calcium mobilization (calcium in G3 cells; Dox-resistant cells (G3R, 10R, WSUR), 10 uM, 2 hrs, FIG. 41B/41C) was “induced both ROS and calcium mobilization” and the “onset of calcium mobilization” value (calcium in G3 cells; G3 cells, 10 uM RTI-79, 0 to 30 minutes) was greater than 15 min. For the same molecule, the “Magnitude of potentiation” value [10] was “+ (potentiation between 1.2 to 2.0 fold increase)”, the “Magnitude of potentiation” value (lymphoma cell line G3; G3, lymphoma B cells) was “++ (potentiation between 2.1 to 5 fold increase)” and the IC50 (lymphoma cell line G3; analog alone, lymphoma cell line G3, read-out: IC50) was 43 µM. For the same molecule, the IC50 (lymphoma cell line G3; with 1 μM doxorubicin, lymphoma cell line G3, read-out: IC50 (μM) with doxorubicin (1 μM)) was 1.14 µM, the “tumor volume lower than in mice receiving only DOXIL” value ([11]; seventh study (multiple, large tumors), after 46 days) was 55% and the “tumor volume reduction during the course of the study” value ([11]; seventh study) was 50%. The “tumor volume lower than in mice receiving only DOXIL” value ([11]; sixth study, after 41 days) was 66%, the “Magnitude of potentiation” value [12] was “+ (potentiation between 1.2 to 2.0 fold increase)” and the “time to maximal plasma concentration” value [13] was no more than 3 h. The “Magnitude of potentiation” value ([3]; SK-OV3, ovarian carcinoma) was “+++ (potentiation greater than 5 fold increase)”, the “inhibition of efflux pumps” value (ABCB1 pumps; NCI/ADR-RES and G3 cells) was “clear inhibition of efflux pumps” and the “rank as inhibitor of ABCB1 among rifabutin derivatives” value (ABCB1 pumps; calcein-AM efflux) was “strongest inhibitor”. The “Magnitude of potentiation” value [14] was “+ (potentiation between 1.2 to 2.0 fold increase)”.
